Experimental data reported in patent publication US20060025446A1, “Propargyl nitroxides and indanyl nitroxides and their use for the treatment of neurologic diseases and disorders” (priority 2004, published 2006).
Counter-ions that a name gives are not always drawn.

Legend:
Human Red Blood Cells = test: Hypochlorite (HOCl) hemolysis of human red blood cells model; assay type: cell-based; conditions: antioxidant activity; compounds dissolved at 5 mg/ml, aliquots tested
Method: Hypochlorite (HOCl) Hemolysis of Human Red Blood Cells Model
The reaction is based on the ability of oxygen radicals to lyse red blood cells. Antioxidant compounds such as ascorbic acid and 4-hydroxy-TEMPO (TEMPOL) prevent membrane damage in a dose dependent manner. All compounds were dissolved at a concentration of 5 mg/ml and aliquots were tested for their ability to prevent lysis.

[1] = Chemiluminescence model (without cells): Luminol, SIN-1, selenite, BSA; assay type: biochemical; conditions: antioxidant activity
Source text: Chemiluminescence Model (Without Cells)
Luminescence was generated in vials containing the following compounds: Luminol, SIN-1 (a generator of NO radicals), selenite, BSA. This reaction is inhibited by scavengers of peroxynitirites as well as scavengers of NO and other oxygen free radicals.

Neutrophils = test: PMA-induced oxidative burst in neutrophils model (DCFH, FACS); assay type: cell-based; conditions: PMA 10 ng/ml for 30 minutes
Method: PMA-Induced Oxidative Burst in Neutrophils Model
The cells were activated with PMA (10 ng/ml) for 30 minutes and incubated with 2,7-dichlorodihydrofluorescin diacetate (DCFH), which is converted to a fluorescent compound in the presence of oxygen radicals and peroxynitrites. The fluorescent cells were detected in a cell sorter (FACS).

[2] = test system: Experimental Allergic Encephalomyelitis (EAE) using PLP 139-151; test: PLP induced EAE in mice; assay type: in vivo, Female SJL mice; conditions: 50 mg/kg/day orally by gavage, day 1 to day 20; for Incid.: sick animals/animals in group
Method: Induction of Experimental Allergic Encephalomyelitis (EAE) Using PLP
Female SJL mice (12 weeks old) were inoculated with the encephalitogienic peptide of proteolipid protein (PLP 139-151) synthesized to a purity of 70% by Sigma (Israel). 150 μg of the peptide were emulsified in complete Freund's adjuvant (CFA) (Difco Laboratories), supplemented with killed mycobacteria (5 mg/ml) and pertussis toxin (200 ng) (Sigma), given subcutaneously at day of inoculation only.
Mice were kept at specific pathogen free (SPF) conditions and given water and food ad libitum. Mice were daily observed for clinical signs from day 10 until day 18-21 post inoculation.
Treatment with Test Compounds
Compounds were dissolved in 2-hydroxypropyl beta cyclodextrin (40% water solution). Treatment started at day 1 post inoculation. The compounds B10 and A10 (50 mg/kg) and vehicle were given orally by gavage every day until day 20 post inoculation.
Interpretation of Results: Calculation of the Incidence of Disease
The number of sick animals in each group was summed. The percentage of sick animals in each group was calculated.
Calculation of the Mean Maximal Score (MMS)
The maximal scores of each of the 15 mice in the group were summed.
The mean maximal score of the group were calculated as follows: Σ maximal score of each mouse/number of mice in the group. Calculation of the Mean Disease Duration (MDD)
The mean duration of disease expressed in days was calculated as follows: Σ duration of disease of each mouse/number of mice in the group. Calculation of the Group Mean Score (GMS)
The scores of each of the 15 mice in the group was summed and the mean score per day was calculated.
The group mean score was calculated as follows: Σ total score of each mouse per day/number of mice in the group.

[3] = test system: EAE using MOG (Myelin Oligodendrocyte Glycoprotein); test: MOG induced EAE in mice; assay type: in vivo, Female C57B1/6 mice
[4] = test system: NGF-Differentiated PC12 Cells; test: MPP+ Parkinson neurotoxicity/neuroprotection model, LDH release; assay type: cell-based; conditions: MPP+ 1000 μM, 48-52 hr
Method: The Parkinson Neurotoxicity Model of 1-methyl-4-phenyl piridinium (MPP+ Iodine Salt, 1000 μM for 48-52 hr), Using 7-10 Days NGF-Differentiated PC12 Cells.
The slow developing cell death in this model is believed to be a result of inhibition of mitochondrial complex I and generation of oxygen and nitrogen radicals. Therefore the antioxidant tempol (4-HYDROXY-TEMPO) was used as a positive standard in the screening experiments with the compounds. The following detailed protocol was employed for testing.
MPP+—Neurotoxicity/Neuroprotection Protocol:
• 1. PC12 cells (2×10^5 cells) were seeded on NUNC 6-well dishes coated with 200 μg/ml collagen (rat tail type I) and grown in DMEM medium containing 7% Fetal Calf Serum, 7% Horse Serum and […] Penicilin and 100 ug/ml Streptomycin. • 2. Differentiation of the cells for 7-10 days was achieved by treatment with mouse β-NGF (β-nerve growth factor) (50 ng/ml) added freshly every 2-3 days to the culture medium. • 3. Cultures were progressively evaluated for the differentiation response expressed by elongation of neurites, increased percentage of responsive cells, and other morphological parameters. • 4. At the day of the experiment, the medium of the differentiated cultures was replaced to fresh medium containing NGF (50 ng/ml). • 5. […] LDH (lactic dehydrogenase) release to the medium (neurotoxicity) was measured after 48-52 hr after the addition of MPP+, using an ELISA reader. […]
Neurotoxicity is defined as the percentage of LDH released to the medium at the end of the experiment calculated according to the following formula: {LDH(MPP)−LDH(control)}/{LDH(total)−LDH(control)}×100=Neurotoxicity (% of total cell death) • LDH(MPP): LDH release at the end of MPP+ insult • LDH(control): LDH release at the end of experiment from untreated cultures • LDH(total): LDH released from the cultures upon freezing at −80° C. and thawing at room temperature (release of total/maximal LDH present in the culture) […]

[5] = dose 50 mg/kg/day, gavage x2/day, day 1 to 30

O=C1O[C@H]([C@@H](O)CO)C(O)=C1O [Ascorbic acid]
HOCl (% lysis) (Human Red Blood Cells): 100% | Chemiluminescence (% inhib.) [1]: 100% | PMA (% cells activated) (Neutrophils): 100%

C#CCN[C@@H]1CCc2ccc(OC(=O)NC3CC(C)(C)N([O])C(C)(C)C3)cc21.Cl [Compound A10, (2,2,6,6-Tetramethyl-1-piperidinyloxy-4-yl)-carbamic acid 3(R)-prop-2-ynylamino-indan-5-yl ester HCl]
MDD (mean disease duration) [2]: 5.8 ± 0.86 days | MDO (mean day of onset) [2]: 11 ± 0.2 | MMS (mean maximal score) [2]: 5.0 ± 0.8 | Mean score [2]: 3.4 ± 0.3 | Incid. [2]: 5/5

C#CCN[C@@H]1CCc2ccc(NC(=O)OC3CC(C)(C)N([O])C(C)(C)C3)cc21 [Compound A11, (3-Prop-2-ynylamino-indan-5-yl) carbamic acid 2,2,6,6-tetramethyl-1-piperidinyloxy-4-yl ester HCl]
effect on EAE ([3]; discussion of results): significant beneficial effect | onset of clinical signs of EAE ([3]; discussion of results): long delay | MDD (mean disease duration) [3, 5]: 8.0 ± 2.02 days | MDO (mean day of onset) [3, 5]: 17.14 ± 0.80 | MMS (mean maximal score) [3, 5]: 2.93 ± 0.76 | Mean score [3, 5]: 0.65 ± 0.09 | Incid. ([3]; sick animals/animals in group, dose 50 mg/kg/day, gavage x2/day, day 1 to 30): 7/13 | Neuroprotection MPP+ ([4]; at 10 μM): 43% at 10

C#CCNC1CC(C)(C)N([O])C(C)(C)C1.Cl [Compound B10, 2,2,6,6-Tetramethyl-4-(prop-2-ynylamino)-piperidine nitroxide HCl]
HOCl (% lysis) (Human Red Blood Cells): 45% | Chemiluminescence (% inhib.) [1]: 42% | (# dead) [2]: 3 | MDD (mean disease duration) [2]: 5.2 ± 0.97 days | MDO (mean day of onset) [2]: 13.6 ± 0.81 | MMS (mean maximal score) [2]: 5.0 ± 0.77 | Mean score [2]: 3.57 ± 0.29 | Incid. [2]: 5/5 | Neuroprotection MPP+ ([4]; at 1 & 10 μM): Active at 1 & 10

CC1(C)CC(O)CC(C)(C)N1[O] [Tempol, 4-hydroxy-2,2,6,6-tetramethylpiperidine-1-nitroxide]
HOCl (% lysis) (Human Red Blood Cells): 25% | Chemiluminescence (% inhib.) [1]: 57% | PMA (% cells activated) (Neutrophils): 70% | Neuroprotection MPP+ ([4]; at 0.5-1.0 mmol): Active at 0.5-1.0
